{"source": "paper PMC10722499", "about": "“Consumption of Roasted Coffee Leads to Conjugated Metabolites of Atractyligenin in Human Plasma” (Journal of Agricultural and Food Chemistry, 2023)", "key": {"[1]": {"parameters": "method as in PMID 36442242", "settings": "coffee drinkers' urine, four of six samples, qualitative; cited from earlier work"}, "[2]": {"test": "Human coffee intervention study: plasma concentrations after roasted coffee brew by UPLC-MS/MS", "type": "in vivo", "settings": "for concentration at 1 h / concentration at 4 h / concentration at 10 h / concentration at 0 h: human, plasma, 200 mL", "protocol": "The study included ten volunteers (5 females, 5 males) (age: 28.3 ± 2.3 years; BMI: 21.89 ± 2.22 kg/m^2). The intervention study took place from November 5, 2021, to February 17, 2022, in the core facility human studies of the ZIEL Institute for Food and Health of the Technical University of Munich. The study was performed in agreement with the Declaration of Helsinki, and all participants gave written informed consent. The study was approved by the Ethics Committee of the Technical University of Munich (5798/13 S-SR) and registered in the German Register of Clinical Studies (DRKS00005083).\nThe study participants underwent a dietary protocol that excluded all forms of coffee consumption. Additionally, chocolate, black/green/white, mate tea, cola, energy drinks, and beauty products containing caffeine (e.g., shampoos, creams) were prohibited 1 week before the test day. Furthermore, the study participants received a standardized meal the evening before the test day. The meal was composed of pasta, margarine, and salt, and the amount of energy was calculated based on the participant’s basal energy demand. On the morning of the test day, the participants were in a fastened state and received water (control samples) or coffee brew (coffee intervention) as breakfast. Blood was sampled before coffee intake (0 h) and at defined time points (1, 4, and 10 h) after coffee intake. 6 h after the coffee intake, the participants received lunch, the same standardized meal as the previous dinner. The administered coffee was prepared from a coffee capsule (Nespresso, ROMA) with 100 mL water. The administered volume of the coffee brew was 200 mL. Based on the coffee powder per capsule ([…]), the concentrations of 2 (2.8 μmol/g) and 3 (1.1 μmol/g), respectively,[10] and an estimated extraction rate of 100%, the total ingested amounts were 33.6 μmol (2) and 13.2 μmol (3).\nIn an Eppendorf tube (1.5 mL), aliquots (50 μL each) of the calibration standard, sample, or QC, respectively, were mixed with the IS solution (1000 nM in ethanol, 50 μL) and acetonitrile/ethanol (9 + 1, v + v, 50 μL) was added. After vortexing, suspensions were cleared by centrifugation (12,000 rpm, 4 °C, 10 min), and the supernatant (∼100 μL) was transferred to an HPLC vial with 200 μL insert for analysis (5 μL injection).\nThe UPLC–MS/MS system consisted of a Shimadzu Nexera X2 UPLC system (Shimadzu, Duisburg, Germany) hyphenated to a QTrap 5500 MS/MS system (Sciex, Darmstadt, Germany) operating in negative electrospray (ESI^–) mode with the following ion source parameters: ion spray voltage: −4500 V; source temperature: 500 °C; nebulizer gas: 55 psi; heater gas: 65 psi; and curtain gas: 35 psi. The MS/MS parameters, including the collision cell entrance potential (CEP), declustering potential (DP), collision energy (CE), and cell exit potential (CXP), were tuned for each compound and mass transition and are summarized in Supporting Table S3. The dwell time for each compound was 30 ms, and the total cycle time was 0.75 s. Chromatographic separation was achieved on a C18 column (Kinetex C18, 100 mm × 2.1 mm, 1.7 μm, Phenomenex, Aschaffenburg, Germany) at a flow rate of 500 μL/min flow rate. Eluent A was 0.1% formic acid in water, and eluent B was 0.1% formic acid in acetonitrile. B was kept at 3% (1 min), increased to 25% (in 3 min), 90% (in 2 min, 1 min isocratic), and 3% (0.5 min, 2.5 min isocratic). The total time of the analysis was 10 min. The column effluent was introduced from the waste to the MS/MS system between 3 and 7 min.\nWe applied this method to human plasma samples from a coffee intervention study to investigate the appearance of coffee compounds 1–3 and metabolites M1–M3. Ten participants underwent a washout period (7 days) and then consumed one dose of […]. Blood samples were taken at baseline (0 h) and 1, 4, and 10 h after the intervention. […]"}}, "note": "Read-outs that look alike come from different tables or passages of the source."}
{"smiles": "CC1C(=O)C23CCC4C(C(=O)O)CC(OC5OC(C(=O)O)C(O)C(O)C5O)CC4(C)C2CCC1C3", "note": "[M3, 2β-hydroxy-15-oxoatractylan-4α-carboxylic acid-2-O-β-D-glucuronide]", "values": [{"measurement": "urine samples in which detected", "setting": "[1]", "result": 67, "unit": "%"}, {"measurement": "plasma level at baseline", "setting": "[2]; 0 h, before coffee intake, human plasma", "result": "below the LLOQ"}, {"measurement": "plasma concentration in samples from two individuals", "setting": "[2]; 10 h after coffee, comparatively high individual values", "result": 180.0, "unit": "nM"}, {"measurement": "samples above the LLOQ", "setting": "[2]; 10 h after coffee, n = 10", "result": 90, "unit": "%"}, {"measurement": "concentration at 1 h", "setting": "[2]; both sexes, oral, 1 h after coffee brew (200 mL), human plasma, values above LLOQ, read-out: plasma concentration, mean ± SD", "result": 1.7, "unit": "nM"}, {"measurement": "concentration at 4 h", "setting": "[2]; both sexes, oral, 4 h after coffee brew (200 mL), human plasma, values above LLOQ, read-out: plasma concentration, mean ± SD", "result": "1.3 ± 1.1", "unit": "nM"}, {"measurement": "concentration at 10 h", "setting": "[2]; both sexes, oral, 10 h after coffee brew (200 mL), human plasma, values above LLOQ, read-out: plasma concentration, mean ± SD", "result": "55 ± 57.7", "unit": "nM"}, {"measurement": "Cmax", "setting": "[2]; both sexes, oral, human plasma after coffee brew (200 mL), n = 10, mean ± SD, read-out: estimated cmax in plasma", "result": "55 ± 57.7", "unit": "nM"}, {"measurement": "time of estimated cmax", "setting": "[2]; human plasma after coffee brew (200 mL), sampling only at 0, 1, 4, 10 h", "result": 10, "unit": "h"}, {"measurement": "study participants in whom the conjugate appeared within 10 h after coffee", "setting": "[2]; human plasma, n = 10", "result": 90, "unit": "%"}, {"measurement": "concentration at 10 h", "setting": "[2]; oral, 10 h after coffee, comparatively high individual values, read-out: plasma concentration in samples from two individuals", "result": 111, "unit": "nM"}, {"measurement": "concentration at 10 h", "setting": "[2]; oral, participant cbdu, 10 h after coffee, read-out: plasma concentration, individual", "result": 11.6, "unit": "nM"}, {"measurement": "concentration at 0 h", "setting": "[2]; oral, participant eogo, 0 h, b = below LLOQ, read-out: plasma concentration, individual", "result": 0.4, "unit": "nM"}, {"measurement": "concentration at 1 h", "setting": "[2]; oral, participant eogo, 1 h after coffee, b = below LLOQ, read-out: plasma concentration, individual", "result": 0.3, "unit": "nM"}, {"measurement": "concentration at 4 h", "setting": "[2]; oral, participant eogo, 4 h after coffee, b = below LLOQ, read-out: plasma concentration, individual", "result": 0.1, "unit": "nM"}, {"measurement": "concentration at 10 h", "setting": "[2]; oral, participant eogo, 10 h after coffee, b = below LLOQ, read-out: plasma concentration, individual", "result": 40.8, "unit": "nM"}, {"measurement": "concentration at 4 h", "setting": "[2]; oral, participant ggot, 4 h after coffee, b = below LLOQ, read-out: plasma concentration, individual", "result": 2.9, "unit": "nM"}, {"measurement": "concentration at 10 h", "setting": "[2]; oral, participant ggot, 10 h after coffee, b = below LLOQ, read-out: plasma concentration, individual", "result": 180, "unit": "nM"}, {"measurement": "concentration at 10 h", "setting": "[2]; oral, participant imhz, 10 h after coffee, read-out: plasma concentration, individual", "result": 9.3, "unit": "nM"}, {"measurement": "concentration at 10 h", "setting": "[2]; oral, participant mgjj, 10 h after coffee, read-out: plasma concentration, individual", "result": 24.3, "unit": "nM"}, {"measurement": "concentration at 4 h", "setting": "[2]; oral, participant rrmk, 4 h after coffee, b = below LLOQ, read-out: plasma concentration, individual", "result": 0.7, "unit": "nM"}, {"measurement": "concentration at 10 h", "setting": "[2]; oral, participant rrmk, 10 h after coffee, read-out: plasma concentration, individual", "result": 50.6, "unit": "nM"}, {"measurement": "concentration at 4 h", "setting": "[2]; oral, participant wbqj, 4 h after coffee, b = below LLOQ, read-out: plasma concentration, individual", "result": 0.9, "unit": "nM"}, {"measurement": "concentration at 10 h", "setting": "[2]; oral, participant wbqj, 10 h after coffee, b = below LLOQ, read-out: plasma concentration, individual", "result": 64.1, "unit": "nM"}, {"measurement": "concentration at 0 h", "setting": "[2]; oral, participant wbvs, 0 h, b = below LLOQ, read-out: plasma concentration, individual", "result": 0.9, "unit": "nM"}, {"measurement": "concentration at 1 h", "setting": "[2]; oral, participant wbvs, 1 h after coffee, read-out: plasma concentration, individual", "result": 1.7, "unit": "nM"}, {"measurement": "concentration at 4 h", "setting": "[2]; oral, participant wbvs, 4 h after coffee, read-out: plasma concentration, individual", "result": 1.9, "unit": "nM"}, {"measurement": "concentration at 10 h", "setting": "[2]; oral, participant wbvs, 10 h after coffee, read-out: plasma concentration, individual", "result": 111, "unit": "nM"}, {"measurement": "concentration at 10 h", "setting": "[2]; oral, participant xrwz, 10 h after coffee, b = below LLOQ, read-out: plasma concentration, individual", "result": 4.1, "unit": "nM"}]}
